US20050013835A1, “Stable non-dihydrate azithromycin oral suspensions” (Pfizer Inc., priority 2003, published 2005)
Where two headings read alike, the source gives them in different places.

Experiments:
[1] = Stability of non-dihydrate azithromycin in constituted suspension: conversion to dihydrate (form A) quantified by SS-NMR; format: physicochemical; conditions: for rate of conversion to azithromycin dihydrate in POS formulation II suspension as compared to bulk drug suspended in deionized water: 5° C. or 30° C., 1 to 10 days
Protocol: These POS formulations were created by individually weighing each formulation component into a 60-cc High Density Polyethylene (HDPE) bottle with closure. The resulting formulations were then dry-mixed with a Turbula blender (Glen Mills Inc. Maywood, N.J.) for 5 minutes. The powder blends were then constituted with 18 mls of water, shaken for 30 seconds and stored without agitation under controlled temperature conditions.
Upon conclusion of the storage time period the suspensions were filtered and suspended solids collected as described previously.

[2] = Effect of sorbitol vehicle viscosity on conversion in flavoring-free form G suspensions (SS-NMR); format: physicochemical; conditions: 820 mg form G, no flavoring, room temperature
Protocol: (§1) Upon conclusion of the storage time period the POS samples were filtered using a Buchner funnel in combination with a standard vacuum filtration apparatus. A Millipore prefilter (AP25, 47 mm) was fitted onto the funnel for the collection of suspended solids. Before filtering, the constituted POS sample was poured into a 200 ml volumetric flask and diluted to 200 ml with water. This lowered the viscosity of the sample, facilitating a quick filtration step. With the vacuum on, the diluted POS samples were poured onto the Millipore prefilter. The isolated filtrate remaining on top of the prefilter was then allowed to stand for 2-minutes in order to dry. Vacuum was applied to the filtration apparatus during this drying step. Suspensions containing only bulk drug were transferred directly onto the filter paper upon completion of storage, without the described dilution step during sample preparation. After drying, the collected filtrate was placed into 4 cc Sunbroker vials and analyzed via Solid-State Nuclear Magnetic Resonance (SS-NMR) for quantification of conversion to azithromycin dihydrate (form A).
(§2) Approximately 300 mg of sample were tightly packed into a 7 mm ZrO spinner for each sample analyzed. One-dimensional ^13C spectra were collected at ambient pressure using ^1H-^13C cross-polarization magic angle spinning (CPMAS) at 295 K on a Bruker 7 mm BL CPMAS probe positioned into a wide-bore Bruker Avance DSX 500 MHz NMR spectrometer (Bruker BioSpin Corporation; Billerica, Mass.). The samples were spun at 7000 Hz corresponding to the maximum specified spinning speed for the 7 mm spinners. The fast spinning speed minimized the intensities of the spinning side bands. To optimize the signal sensitivity, the cross-polarization contact time was adjusted to 2.3 ms and the decoupling power was set to 65 kHz. Typically, a total of 600 scans were acquired, resulting in approximately a 30 minute acquisition time. The spectra were referenced using an external sample of adamantane with its most upfield resonance set to 29.5 ppm.
(§3) Eight pairs of resolved peaks were identified to calibrate ratios of form A in the presence of form G, N, M or F. Integral intensities of all peaks were used as input for the calibration procedure using five different binary mixtures ranging from 3 to 81% of form A with each non-dihydrate form. From this, one non-linear calibration graph was generated for each pair of peaks and each form. For the experimental samples, only the peaks that were totally void from excipient overlap were preferentially integrated. The unknown percentages of form A were then determined from the appropriate calibration graphs. The final result for each sample analyzed was calculated as a weighted average of the determinations from each resolved peak pair.
(§4) Viscosifying agents were incorporated into POS formulations in the absence of conversion enhancers, such as flavoring components. Specifically, a series of viscous media was prepared by dissolving various amounts of either sucrose or sorbitol in a 0.22 M phosphate buffer solution. Each solution was then adjusted with sodium hydroxide to bring the mixture to a pH of 7.8. The viscosity of each constitution media was measured using a Brookfield digital viscometer (model DV-II) equipped with a 13R sample chamber and #18 spindle. A heating jacket was also used to maintain the 8 ml sample volume to a temperature of 21° C. during measurements. 18 mls of each viscous media were then used to constitute 820 mg of form G azithromycin. The resulting suspensions were stored at room temperature for both 5 and 10-days. Upon conclusion of the storage time period the constituted samples were filtered and analyzed by SS-NMR for quantitation of dihydrate species present.

[3] = Effect of sucrose vehicle viscosity on conversion in flavoring-free form G suspensions (SS-NMR); format: physicochemical; conditions: 820 mg form G, no flavoring, room temperature
Protocol: as §1, §2, §3, §4

[4] = Literature value (Johnson, Kreuter and Zografi, Colloids and Surfaces 17 (1986) 325-342); cited from earlier work
[5] = Addition of polymeric and surfactant components to slow form F conversion in formulation II (SS-NMR); format: physicochemical; conditions: additive level 1 % w/v, 18 ml water, 24 hours room temperature
Protocol: as §1, with “Vacuum was applied to the filtration apparatus during this drying step. Suspensions containing only bulk drug were transferred directly onto the filter paper upon completion of storage, without the described dilution step during sample preparation.” left out
(§5) Approximately 300 mg of sample were tightly packed into a 7 mm ZrO spinner for each sample analyzed. […]
(§6) Eight pairs of resolved peaks were identified to calibrate ratios of form A in the presence of form G, N, M or F. Integral intensities of all peaks were used as input for the calibration procedure using five different binary mixtures ranging from 3 to 81% of form A with each non-dihydrate form. […] The unknown percentages of form A were then determined from the appropriate calibration graphs. […]

[6] = Addition of polymeric and surfactant components to slow form M conversion in formulation II (SS-NMR); format: physicochemical; conditions: additive level 1 % w/v, 18 ml water, 24 hours room temperature
Protocol: as §1, with “Vacuum was applied to the filtration apparatus during this drying step. Suspensions containing only bulk drug were transferred directly onto the filter paper upon completion of storage, without the described dilution step during sample preparation.” left out
as §5, §6

[7] = Surface tension of aqueous additive solution (Wilhelmy plate or literature); format: physicochemical; conditions: aqueous solution at the concentration used in the suspension (1 % w/v), Kruss Tensiometer, Wilhemy plate, room temperature
[8] = Effect of individual flavorings and sucrose on conversion of form G to form A in pH 8.16 buffer (SS-NMR); format: physicochemical; conditions: 820 mg form G + 200 mg flavoring or sucrose, 18 ml pH 8.16 buffer, room temperature
[9] = Bulk drug in 18 ml water, 5° C., day 1
[10] = Bulk drug in 18 ml water, 5° C., day 10
[11] = Bulk drug in 18 ml water, 30° C., day 1
[12] = Bulk drug in 18 ml water, 30° C., day 10
[13] = Formulation II constituted with 18 ml water, 5° C., day 1
[14] = Formulation II constituted with 18 ml water, 5° C., day 10
[15] = Formulation II constituted with 18 ml water, 30° C., day 1
[16] = Formulation II constituted with 18 ml water, 30° C., day 10
[17] = Bulk drug in 18 ml water, 5° C., day 5
[18] = Bulk drug in 18 ml water, 30° C., day 5
[19] = Formulation II constituted with 18 ml water, 5° C., day 5
[20] = Formulation II constituted with 18 ml water, 30° C., day 5
[21] = 18 ml 0.0 mg/ml sorbitol solution pH 7.8, viscosity ˜1 cP
[22] = 18 ml 1.02 mg/ml sorbitol solution pH 7.8, viscosity 3.4 cP
[23] = 18 ml 1.54 mg/ml sorbitol solution pH 7.8, viscosity 21.0 cP
[24] = 18 ml 2.04 mg/ml sorbitol solution pH 7.8, viscosity 130.9 cP
[25] = 18 ml 0.0 mg/ml sucrose solution pH 7.8, viscosity 1.2 cP
[26] = 18 ml 0.8 mg/ml sucrose solution pH 7.8, viscosity 10.2 cP
[27] = 18 ml 1.1 mg/ml sucrose solution pH 7.8, viscosity 20.2 cP
[28] = 18 ml 1.4 mg/ml sucrose solution pH 7.8, viscosity 41.7 cP
[29] = 18 ml 1.8 mg/ml sucrose solution pH 7.8, viscosity 105.0 cP

What does the source list for `CCC1OC(=O)C(C)C(O[C@H]2C[C@@](C)(OC)[C@@H](O)C(C)O2)C(C)[C@@H](OC2OC(C)CC(N(C)C)[C@H]2O)[C@@](C)(O)C[C@@H](C)CN(C)[C@H](C)[C@@H](O)[C@]1(C)O` (some centres unmarked) [Form F, azithromycin monohydrate hemi-ethanol solvate]?
rate of conversion to azithromycin dihydrate in POS formulation II suspension as compared to bulk drug suspended in deionized water [1]: much greater rates; % A [1, 9]: 0%; % A [1, 10]: 0%; % A [1, 11]: 0%; % A [1, 12]: 0%; % A [1, 13]: 6%; % A [1, 14]: 27%; % A [1, 15]: 19%; % A [1, 16]: 31%

Which results are given for `CC[C@H]1OC(=O)[C@H](C)[C@@H](O[C@H]2C[C@@](C)(OC)[C@@H](O)[C@H](C)O2)[C@H](C)[C@@H](O[C@@H]2O[C@H](C)C[C@H](N(C)C)[C@H]2O)[C@](C)(O)C[C@@H](C)CN(C)[C@H](C)[C@@H](O)[C@]1(C)O` [Form G, azithromycin sesquihydrate]?
rate of conversion to azithromycin dihydrate in POS formulation II suspension as compared to bulk drug suspended in deionized water [1]: much greater rates; % A [1, 9]: 1%; % A [1, 17]: 6%; % A [1, 10]: 12%; % A [1, 11]: 3%; % A [1, 18]: 26%; % A [1, 12]: 73%; % A [1, 13]: 72%; % A [1, 19]: 75%; % A [1, 14]: 78%; % A [1, 15]: 82%; % A [1, 20]: 74%; % A [1, 16]: 76%; 5-day Storage (% Form A) [2, 21]: 35%; 10-day Storage (% Form A) [2, 21]: 100%; 5-day Storage (% Form A) [2, 22]: 7%; 10-day Storage (% Form A) [2, 22]: 7%; 5-day Storage (% Form A) [2, 23]: 0%; 10-day Storage (% Form A) [2, 23]: 0%; 5-day Storage (% Form A) [2, 24]: 0%; 10-day Storage (% Form A) [2, 24]: 0%; 5-day Storage (% Form A) [3, 25]: 20%; 10-day Storage (% Form A) [3, 25]: 55%; 5-day Storage (% Form A) [3, 26]: 5%; 10-day Storage (% Form A) [3, 26]: 12%; 5-day Storage (% Form A) [3, 27]: 5%; 10-day Storage (% Form A) [3, 27]: 6%; 5-day Storage (% Form A) [3, 28]: 1%; 10-day Storage (% Form A) [3, 28]: 3%; 5-day Storage (% Form A) [3, 29]: 0%; 10-day Storage (% Form A) [3, 29]: 0%

Which results are given for `CCC1OC(=O)C(C)C(O[C@H]2C[C@@](C)(OC)[C@@H](O)C(C)O2)C(C)[C@@H](OC2OC(C)CC(N(C)C)[C@H]2O)[C@@](C)(O)C[C@@H](C)CN(C)[C@H](C)[C@@H](O)[C@]1(C)O` (some centres unmarked) [Form J, azithromycin monohydrate hemi-n-propanol solvate]?
rate of conversion to azithromycin dihydrate in POS formulation II suspension as compared to bulk drug suspended in deionized water [1]: did not exhibit a greater conversion rate; % A [1, 13]: 0%; % A [1, 14]: 0%; % A [1, 15]: 0%; % A [1, 16]: 0%

Which results are given for `CCC1OC(=O)C(C)C(O[C@H]2C[C@@](C)(OC)[C@@H](O)C(C)O2)C(C)[C@@H](OC2OC(C)CC(N(C)C)[C@H]2O)[C@@](C)(O)C[C@@H](C)CN(C)[C@H](C)[C@@H](O)[C@]1(C)O` (some centres unmarked) [Form M, azithromycin monohydrate hemi-isopropanol solvate]?
rate of conversion to azithromycin dihydrate in POS formulation II suspension as compared to bulk drug suspended in deionized water [1]: much greater rates; % A [1, 9]: 0%; % A [1, 17]: 0%; % A [1, 10]: 0%; % A [1, 11]: 0%; % A [1, 18]: 0%; % A [1, 12]: 0%; % A [1, 13]: 23%; % A [1, 19]: 38%; % A [1, 14]: 40%; % A [1, 15]: 28%; % A [1, 20]: 36%; % A [1, 16]: 62%

Which “Surface Tension” value [4] does the source give for `CCCCCCCCOC(=O)CC(C(=O)OCCCCCCCC)S(=O)(=O)O.[Na]` (centres unmarked) [Sodium Dioctyl Sulfosuccinate] here?
The value was 25.6^1 dyne/cm.

And the “% Conversion to Form A Relative to the Control Sample” value [5]?
Its value is 0%.

What about the “% Conversion to Form A Relative to the Control Sample” value [6] of the same compound?
Its value is 0%.

Which “% Conversion to Form A Relative to the Control Sample” value [5] does the source give for `CCCCCCCCCCCCOS(=O)(=O)[O-].[Na+]` [Sodium Lauryl Sulfate] here?
The value was 0%.

What about the “% Conversion to Form A Relative to the Control Sample” value [6] of the same compound?
The value was 0%.

What about the “Surface Tension” value [7] of the same compound?
The value was 35.8^2 dyne/cm.

What does the source list for `OC[C@H]1O[C@@](CO)(O[C@H]2O[C@H](CO)[C@@H](O)[C@H](O)[C@H]2O)[C@@H](O)[C@@H]1O` [Sucrose]?
Δ % Form A ([8]; constituted 1 day): 2%; Δ % Form A ([8]; constituted 5 days): 1%; Δ % Form A ([8]; constituted 10 days): 6%; Δ % Form A ([8]; constituted 10 days, listed as sucrose): only minimal conversion to form A
